This is an account of results in PubChem BioAssay (NCI).

What all share (test): NCI-60 cell line screen, 48 h
Assay [1] relates to HT29 colon.
Assay [2] deals with NCI-H522 lung.
The subject of assay [3] is SF-268 CNS.
The subject of assay [4] is NCI-H460 lung.
The subject of assay [5] is LOX IMVI melanoma.
Assay [6] relates to OVCAR-8 ovarian.
The subject of assay [7] is SK-MEL-2 melanoma.
The subject of assay [8] is TK-10 renal.

“And” between values parts separate entries of the source, which are not always exact repeats. Equal values may be shown once.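 Results reflect a 48-hour exposure of cells in 96-well plates to compound at five concentrations. GI50 marks 50% less growth. TGI marks complete inhibition of growth.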

As to `CC(C)(C)c1cc(-c2nc3c(F)c(F)c(F)c(F)c3[nH]2)cc(C(C)(C)C)c1O`, the GI50 in assay [1], in assay [2], in assay [3], in assay [4], in assay [5] and in assay [6] was over 100 µM in each case. The GI50 in assay [7] and in assay [8] was over 100 µM each time. Besides, the TGI in assay [1], in assay [2], in assay [3], in assay [4], in assay [5] and in assay [6] was over 100 µM in each case. Also, the TGI in assay [7] and in assay [8] was over 100 µM throughout.
As for `O=S(=O)(Nc1ccccn1)c1ccc(N=Nc2ccc(O)c3ncccc23)cc1`, the GI50 in assay [1] is 4.53 µM; in assay [2], 0.418 µM; in assay [3] it was 1.12 µM; in assay [4], 0.891 µM; in assay [5], 0.735 µM; in assay [6], 0.715 µM. The GI50 in assay [7] was 0.463 µM; in assay [8], 2.82 µM. The TGI in assay [1] was 19.3 µM; in assay [2], 2.14 µM; in assay [3] it was 50.7 µM; in assay [4], 4.59 µM; in assay [5], 16 µM; in assay [7], 1.64 µM. This compound also returned a TGI in assay [8] of 7.31 µM.
In the case of `CN1CCN(CC(=O)N2c3cccc4cccc(c34)N(C(=O)CN3CCN(C)CC3)C2c2cn(-c3ccccc3)nc2-c2cccc([N+](=O)[O-])c2)CC1`, the GI50 in assay [1] was 2.19 µM; in assay [2], 1.92 µM; in assay [3], 1.95 µM; in assay [4], 2.23 µM; in assay [5], 1.74 µM; in assay [6], 2.35 µM. Moreover, the GI50 in assay [7] was 1.95 µM; in assay [8] it was 2.42 µM. Also, the TGI worked out at 5.59 µM in assay [1]; 4.13 µM in assay [2]; 4.95 µM in assay [3]; 4.98 µM in assay [4]; 3.22 µM in assay [5]; 5.79 µM in assay [6]. In addition, the TGI came to 4.04 µM in assay [7] and 5.61 µM in assay [8].
Regarding `Nc1ncnc2c1ncn2C1OC(COC2C(CO)OC(OC(C(=O)O)C(O)C(OP(=O)(O)O)C(O)C(=O)O)C(O)C2O)C(O)C1O` (stereo not given), the TGI in assay [1], in assay [2], in assay [3], in assay [4], in assay [5] and in assay [6] was over 100 µM throughout. The TGI in assay [7] and in assay [8] was over 100 µM throughout.
On to `CSC1(CC(=O)N2CCCCC2)C(=O)Nc2ccccc21` (stereo not given), for which the TGI in assay [1], in assay [3], in assay [4], in assay [5], in assay [7] and in assay [8] was over 100 µM each time.
With `COc1cc2c3c(n(CCCN4CCCC(O)C4)c(=O)c2cc1OC)-c1cc2c(cc1C3=O)OCO2` (stereo not given), the GI50 was 0.731 µM in assay [1]; 2.34 µM in assay [2]; 0.593 µM in assay [3]; under 0.005 µM in assay [4]; 0.0213 µM in assay [5]; 0.587 µM in assay [6]. For the same compound, the figures for the GI50 in assay [7] and in assay [8] were 2.68 µM and 6.38 µM, respectively. Also, the TGI in assay [1] was 9.94 µM; in assay [2], 8.91 µM; in assay [3] it was 1.94 µM; in assay [4] it was 6.13 µM; in assay [5], 0.849 µM; in assay [6] it was 1.45 µM. Moreover, the TGI in assay [7] was determined as 28.4 µM; in assay [8], 14.2 µM.
Turning to `Cc1cc(N(CCOS(C)(=O)=O)CCOS(C)(=O)=O)ccc1C=Nc1ccc(-c2csc(-c3ccc(Br)cc3)n2)cc1`, the TGI in assay [1] is 44.6 µM; in assay [2], 1.68 µM; in assay [3], over 80.2 µM; in assay [4], 12.7 µM; in assay [5] it was 36.5 µM; in assay [6] it was 61.6 µM. For the same compound, the values for the TGI in assay [7] and in assay [8] were 61.7 µM and 36.9 µM, respectively.
For `Fc1cccc(-c2[nH]nc3nc(Nc4cccnc4)sc23)c1`, the GI50 in assay [2] was 13.7 µM; in assay [3] it was over 100 µM; in assay [4] it was 2.38 µM; in assay [5], 3.68 µM; in assay [6], 15.7 µM; in assay [7] it was 42.2 µM. For the same compound, in assay [8], the GI50 is 31.2 µM. For the same compound, the TGI in assay [2], in assay [3], in assay [4], in assay [5], in assay [6] and in assay [7] was over 100 µM throughout. In addition, in assay [8], the TGI was over 100 µM.
With `Cc1ccc(NC(=O)c2cc3ccccc3cc2O)c(C)c1.Cc1ccc(NC(=O)c2cc3ccccc3cc2[O-])c(C)c1.[Ni+2]`, the GI50 in assay [1] is 3.14 µM; in assay [2], 3.08 µM; in assay [3], 3.52 µM; in assay [4] it was 2.77 µM; in assay [7], 1.53 µM; in assay [8] it was 4.66 µM. Besides, the TGI in assay [1] is 10.9 µM; in assay [2], 10.5 µM; in assay [3] it was 17.2 µM; in assay [4] it was 14.3 µM; in assay [7], 3.62 µM; in assay [8] it was 17 µM.
As for `Cc1c(-c2nnc(-c3cc(Cl)c(Cl)cc3Cl)o2)nnn1-c1ccnc2c(C(F)(F)F)cccc12`, the GI50 was 22.3 µM in assay [1]; 21.8 µM in assay [2]; 25 µM in assay [3]; 21.7 µM in assay [4]; 19.7 µM in assay [5]; 19.9 µM in assay [7]. Further, the GI50 in assay [8] is 32.2 µM. Besides, the TGI in assay [1] came to 42.2 µM; in assay [2], 55.8 µM; in assay [3], 62.2 µM; in assay [4], 42.9 µM; in assay [5], 38.7 µM; in assay [7], 52 µM. The TGI in assay [8] came out at 87 µM.
On to `CC(C)c1ccc2nc3ccc(C(=O)NCCN4CCN(c5ccccc5)CC4)cn3c(=O)c2c1`, for which the TGI in assay [1], in assay [2], in assay [3], in assay [4], in assay [6] and in assay [8] was over 100 µM in each case.
For the compound `C/C=C/C1=CN2C(=O)c3cc(OC4OC(C)C(NC)C(C)(O)C4O)c(C)c(O)c3N=C[C@@H]2C1` (stereo not given in full), the TGI was 10.2 µM in assay [1], 0.302 µM in assay [2], 4.06 µM in assay [5] and over 100 µM in assay [6]. The GI50 was 0.119 µM in assay [2]; 0.0342 µM and < 0.01 µM in assay [3]; 0.0376 µM and < 0.01 µM in assay [4]; 0.0619 µM and < 0.01 µM in assay [5]; 0.326 µM in assay [8].
